{"source": "patent US8557820B2", "about": "“Crystal modifications of transmission dyes” (BASF SE, priority 2007, dated 2013)", "assay": "Thermodynamic / phase stability of the crystal modification at 25° C.", "type": "physicochemical", "procedure": "This modification is therefore suitable in dispersions comprising micro-fine particles.\nAdvantageously, dispersions comprising this specific crystal modification are not subjected to phase transformations resulting in a crystal growth.\n5 g of the compound obtained in Example A2 (modification (B)) and 5 g of the compound of formula (1) obtained in Example A1 are elutriated in 50 g N-methylpyrrolidone at 25° C.\nThe suspension is stirred for 3 days at 25° C."}
{"smiles": "CCN(CC)c1ccc(C(=O)c2ccccc2C(=O)N2CCN(C(=O)c3ccccc3C(=O)c3ccc(N(CC)CC)cc3O)CC2)c(O)c1", "note": "[crystal modification (C)]", "values": [{"measurement": "thermodynamic stability of the crystal modification", "value": "thermodynamically stable"}]}
